Where two headings read alike, the source gives them in different places.
What was measured:
[1] = system: HMLER CD24^low/CD44^high cells; assay: Cell viability assay (CellTiter-Blue, 72 h) in HMLER breast cancer stem cell model; format: cell-based, human; conditions: for Selectivity: ratio of the IC50 ID2 to the IC50 HMLER; for IC50: Homo sapiens
Description: (§1) The compounds have been evaluated against a model of breast cancer stem cells (HMLER) and matching non-stem cells (namely ID2 of HIMLER CD24^high/CD4^high/low), and in MCF10A cells (normal breast cell line).
(§2) Each IC50 value was determined in biological triplicate (three independent biological experiments), and each triplicate was determined in at least technical duplicate.
HMLER cells naturally repressing E-cadherin, obtained from human mammary epithelial cells infected with a retrovirus carrying hTERT, SV40, and the oncogenic allele H-rasV12, were cultured in DMEM/F12 (Gibco, 31331-028) supplemented with 10% FBS, 10 μg/mL insulin (Sigma-Aldrich, 10516), 0.5 ug/mL hydrocortisone (Sigma-Aldrich, H0888), and 0.5 ug/mL puromycin (Life Technologies, A11138-02); cells were a generous gift from Alain Puisieux (INSERM). All cells were incubated at 37° C. with 5% CO2. HMLER CD44low/high cells stained with CD24-APC and CD44-PE antibodies were sorted by FACS using an Aria Ilu (BD Biosciences) to obtain isolated CD24^low/CD44^high and CD24^high/CD44^low cell populations. HMLER CD24^low/CD44^high cells were supplemented with 10 ng/ml human epidermal growth factor (EGF, Miltenyi Biotec, 130-093-750, 100 ng/ml), while HMLER CD24^high/CD44^low cells were grown without EGF. MCF10A cells (ATCC, CRL-10317) were cultured in DMEM/F12 supplemented with 10% horse serum (Invitrogen, 16050-122), 10 μg/mL insulin, 10 ng/ml EGF, 0.5 μg/mL hydrocortisone, 100 ng/ml cholera toxin (Sigma-Aldrich, C8052), and 1× PenStrep (Invitrogen, 15070-063).
The cell viability assay was carried out by plating 1000 cells per well in 96-well plates. The cells were treated for 72 h in a range between 12 nM and 50 µM or 0.3 nM and 4 μM using serial dilutions following the manufacturer's protocol. Very briefly, the CellTiter-Blue reagent (G8081, Promega) was added to the wells after 72 h of treatment, and cells were incubated for 3 h before fluorescence intensities (λex=560/20 nm; λem=590/10 nm) were recorded using a PerkinElmer Wallac 1420 Victor2 microplate reader. The IC50 cell viability curves were plotted using the Prism 8 software for the synthesized compounds against HMLER CD24^low/CD44^high and the isogenic cell line HMLER CD24^high/CD44^low.
All derivatives were assessed for their antiproliferative activity and selectivity toward a well-established model of mesenchymal CSCs (HMLER CD24^low/CD44^high) together with their epithelial counterparts (HMLER CD24^high/CD44^low) lacking CSC properties. […] Specifically, compounds 6, 8, and 9 were identified to be particularly interesting in this context, with IC50 values of 30, 3, and 9 nM, respectively, together with their outstanding selectivities (Sls between 20.0 and 90.0).

[2] = system: ID2 (HMLER CD24^high/CD44^low) cells; assay: Cell viability assay (CellTiter-Blue, 72 h) in ID2 matching non-stem cells; format: cell-based; conditions: Homo sapiens, read-out: ID2 cancer cells (IC50, μM)
Description: as §1
Each IC50 value was determined in biological triplicate (three independent biological experiments), and each triplicate was determined in at least technical duplicate. […]
(§3) The cell viability assay was carried out by plating 1000 cells per well in 96-well plates. […] Very briefly, the CellTiter-Blue reagent (G8081, Promega) was added to the wells after 72 h of treatment, and cells were incubated for 3 h before fluorescence intensities (λex=560/20 nm; λem=590/10 nm) were recorded using a PerkinElmer Wallac 1420 Victor2 microplate reader. […]
All derivatives were assessed for their antiproliferative activity and selectivity toward a well-established model of mesenchymal CSCs (HMLER CD24^low/CD44^high) together with their epithelial counterparts (HMLER CD24^high/CD44^low) lacking CSC properties. […]

MCF10A cells = assay: Cell viability assay (CellTiter-Blue, 72 h) in MCF10A normal breast cell line; format: cell-based; conditions: Homo sapiens, MCF-10A, read-out: MCF10A (IC50, μM)
Description: as §1, §2
HMLER cells naturally repressing E-cadherin, obtained from human mammary epithelial cells infected with a retrovirus carrying hTERT, SV40, and the oncogenic allele H-rasV12, were cultured in DMEM/F12 (Gibco, 31331-028) supplemented with 10% FBS, 10 μg/mL insulin (Sigma-Aldrich, 10516), 0.5 ug/mL hydrocortisone (Sigma-Aldrich, H0888), and 0.5 ug/mL puromycin (Life Technologies, A11138-02); cells were a generous gift from Alain Puisieux (INSERM). All cells were incubated at 37° C. with 5% CO2. […]
as §3

[3] = cell viability, 72 h treatment, CellTiter-Blue, biological triplicate, read-out: HMLER cancer cells (IC50)
[4] = 72 h, read-out: HMLER cancer cells (IC50, μM)

Row | Compound | Selectivity [1] | further results
1 | CCN[C@H]1C=C[C@]2(O[C@H]([C@@H](CC)C(=O)[C@@H](C)[C@@H](O)[C@H](C)[C@@H]3O[C@@H]([C@@H](CC)C(=O)[O-])CC[C@@H]3C)[C@@H](C)C[C@H]2C)O[C@@]12CC[C@@](C)([C@H]1CC[C@](O)(CC)[C@H](C)O1)O2.[Na+] [Compound 1] | 6.1 | 
2 | CCCN[C@H]1C=C[C@]2(O[C@H]([C@@H](CC)C(=O)[C@@H](C)[C@@H](O)[C@H](C)[C@@H]3O[C@@H]([C@@H](CC)C(=O)[O-])CC[C@@H]3C)[C@@H](C)C[C@H]2C)O[C@@]12CC[C@@](C)([C@H]1CC[C@](O)(CC)[C@H](C)O1)O2.[Na+] [Compound 2] | 10.1 | 
3 | CCCCN[C@H]1C=C[C@]2(O[C@H]([C@@H](CC)C(=O)[C@@H](C)[C@@H](O)[C@H](C)[C@@H]3O[C@@H]([C@@H](CC)C(=O)[O-])CC[C@@H]3C)[C@@H](C)C[C@H]2C)O[C@@]12CC[C@@](C)([C@H]1CC[C@](O)(CC)[C@H](C)O1)O2.[Na+] [Compound 3] | 15.2 | 
4 | CC[C@@H](C(=O)[C@@H](C)[C@@H](O)[C@H](C)[C@@H]1O[C@@H]([C@@H](CC)C(=O)[O-])CC[C@@H]1C)[C@H]1O[C@]2(C=C[C@H](NCC(C)C)[C@]3(CC[C@@](C)([C@H]4CC[C@](O)(CC)[C@H](C)O4)O3)O2)[C@H](C)C[C@@H]1C.[Na+] [Compound 4] | 11.0 | 
5 | CCCCCN[C@H]1C=C[C@]2(O[C@H]([C@@H](CC)C(=O)[C@@H](C)[C@@H](O)[C@H](C)[C@@H]3O[C@@H]([C@@H](CC)C(=O)[O-])CC[C@@H]3C)[C@@H](C)C[C@H]2C)O[C@@]12CC[C@@](C)([C@H]1CC[C@](O)(CC)[C@H](C)O1)O2.[Na+] [Compound 5] | 10.8 | 
6 | CCCCCCN[C@H]1C=C[C@]2(O[C@H]([C@@H](CC)C(=O)[C@@H](C)[C@@H](O)[C@H](C)[C@@H]3O[C@@H]([C@@H](CC)C(=O)[O-])CC[C@@H]3C)[C@@H](C)C[C@H]2C)O[C@@]12CC[C@@](C)([C@H]1CC[C@](O)(CC)[C@H](C)O1)O2.[Na+] [Compound 6] | 24.7 | IC50 [1, 3]: 0.03 ± 0.01 µM
7 | CCCCCCCCCCCCN[C@H]1C=C[C@]2(O[C@H]([C@@H](CC)C(=O)[C@@H](C)[C@@H](O)[C@H](C)[C@@H]3O[C@@H]([C@@H](CC)C(=O)[O-])CC[C@@H]3C)[C@@H](C)C[C@H]2C)O[C@@]12CC[C@@](C)([C@H]1CC[C@](O)(CC)[C@H](C)O1)O2.[Na+] [Compound 7] | 4.1 | 
8 | CC[C@@H](C(=O)[C@@H](C)[C@@H](O)[C@H](C)[C@@H]1O[C@@H]([C@@H](CC)C(=O)[O-])CC[C@@H]1C)[C@H]1O[C@]2(C=C[C@H](N(CC)CC)[C@]3(CC[C@@](C)([C@H]4CC[C@](O)(CC)[C@H](C)O4)O3)O2)[C@H](C)C[C@@H]1C.[Na+] [Compound 8] | 90.0 | IC50 [1, 3]: 0.003 ± 0.0005 µM
9 | CCCN(CCC)[C@H]1C=C[C@]2(O[C@H]([C@@H](CC)C(=O)[C@@H](C)[C@@H](O)[C@H](C)[C@@H]3O[C@@H]([C@@H](CC)C(=O)[O-])CC[C@@H]3C)[C@@H](C)C[C@H]2C)O[C@@]12CC[C@@](C)([C@H]1CC[C@](O)(CC)[C@H](C)O1)O2.[Na+] [Compound 9] | 20.0 | IC50 [1, 3]: 0.009 ± 0.0002 µM
10 | CCCCN(CCCC)[C@H]1C=C[C@]2(O[C@H]([C@@H](CC)C(=O)[C@@H](C)[C@@H](O)[C@H](C)[C@@H]3O[C@@H]([C@@H](CC)C(=O)[O-])CC[C@@H]3C)[C@@H](C)C[C@H]2C)O[C@@]12CC[C@@](C)([C@H]1CC[C@](O)(CC)[C@H](C)O1)O2.[Na+] [Compound 10] | 7.6 | 
11 | CCCCCN(CCCCC)[C@H]1C=C[C@]2(O[C@H]([C@@H](CC)C(=O)[C@@H](C)[C@@H](O)[C@H](C)[C@@H]3O[C@@H]([C@@H](CC)C(=O)[O-])CC[C@@H]3C)[C@@H](C)C[C@H]2C)O[C@@]12CC[C@@](C)([C@H]1CC[C@](O)(CC)[C@H](C)O1)O2.[Na+] [Compound 11] | 7.7 | 
12 | CCCCCCN(CCCCCC)[C@H]1C=C[C@]2(O[C@H]([C@@H](CC)C(=O)[C@@H](C)[C@@H](O)[C@H](C)[C@@H]3O[C@@H]([C@@H](CC)C(=O)[O-])CC[C@@H]3C)[C@@H](C)C[C@H]2C)O[C@@]12CC[C@@](C)([C@H]1CC[C@](O)(CC)[C@H](C)O1)O2.[Na+] [Compound 12] | 13.3 | 
13 | CCCCCCCCCCCCN(CCCCCCCCCCCC)[C@H]1C=C[C@]2(O[C@H]([C@@H](CC)C(=O)[C@@H](C)[C@@H](O)[C@H](C)[C@@H]3O[C@@H]([C@@H](CC)C(=O)[O-])CC[C@@H]3C)[C@@H](C)C[C@H]2C)O[C@@]12CC[C@@](C)([C@H]1CC[C@](O)(CC)[C@H](C)O1)O2.[Na+] [Compound 13] | 5.2 | 
14 | CC[C@@H](C(=O)[C@@H](C)[C@@H](O)[C@H](C)[C@@H]1O[C@@H]([C@@H](CC)C(=O)[O-])CC[C@@H]1C)[C@H]1O[C@]2(C=C[C@H](NCc3ccccc3)[C@]3(CC[C@@](C)([C@H]4CC[C@](O)(CC)[C@H](C)O4)O3)O2)[C@H](C)C[C@@H]1C.[Na+] [Compound 14] | 6.2 | 
15 | CC[C@@H](C(=O)[C@@H](C)[C@@H](O)[C@H](C)[C@@H]1O[C@@H]([C@@H](CC)C(=O)[O-])CC[C@@H]1C)[C@H]1O[C@]2(C=C[C@H](NCc3ccc(O)cc3)[C@]3(CC[C@@](C)([C@H]4CC[C@](O)(CC)[C@H](C)O4)O3)O2)[C@H](C)C[C@@H]1C.[Na+] [Compound 15] | 12.4 | 
16 | CC[C@@H](C(=O)[C@@H](C)[C@@H](O)[C@H](C)[C@@H]1O[C@@H]([C@@H](CC)C(=O)[O-])CC[C@@H]1C)[C@H]1O[C@]2(C=C[C@H](NCc3ccc(C)cc3)[C@]3(CC[C@@](C)([C@H]4CC[C@](O)(CC)[C@H](C)O4)O3)O2)[C@H](C)C[C@@H]1C.[Na+] [Compound 16] | 12.7 | 
17 | CC[C@@H](C(=O)[C@@H](C)[C@@H](O)[C@H](C)[C@@H]1O[C@@H]([C@@H](CC)C(=O)[O-])CC[C@@H]1C)[C@H]1O[C@]2(C=C[C@H](NCc3ccc(F)cc3)[C@]3(CC[C@@](C)([C@H]4CC[C@](O)(CC)[C@H](C)O4)O3)O2)[C@H](C)C[C@@H]1C.[Na+] [Compound 17] | 10.2 | 
18 | CC[C@@H](C(=O)[C@@H](C)[C@@H](O)[C@H](C)[C@@H]1O[C@@H]([C@@H](CC)C(=O)[O-])CC[C@@H]1C)[C@H]1O[C@]2(C=C[C@H](NCc3ccc(Cl)cc3)[C@]3(CC[C@@](C)([C@H]4CC[C@](O)(CC)[C@H](C)O4)O3)O2)[C@H](C)C[C@@H]1C.[Na+] [Compound 18] | 11.0 | 
19 | C#CCN(CC#C)[C@H]1C=C[C@]2(O[C@H]([C@@H](CC)C(=O)[C@@H](C)[C@@H](O)[C@H](C)[C@@H]3O[C@@H]([C@@H](CC)C(=O)O)CC[C@@H]3C)[C@@H](C)C[C@H]2C)O[C@@]12CC[C@@](C)([C@H]1CC[C@](O)(CC)[C@H](C)O1)O2 [Compound 19, C20-epi-dipropargyloaminosalinomycin] | 3.5 | IC50 [1, 4]: 2.4 µM; IC50 [2]: 8.43 µM
20 | CC[C@@H](C(=O)[C@@H](C)[C@@H](O)[C@H](C)[C@@H]1O[C@@H]([C@@H](CC)C(=O)O)CC[C@@H]1C)[C@H]1O[C@]2(C=C[C@@H](O)[C@]3(CC[C@@](C)([C@H]4CC[C@](O)(CC)[C@H](C)O4)O3)O2)[C@H](C)C[C@@H]1C [Salinomycin] | 3.1 | IC50 [1, 4]: 1.39 ± 0.1 µM; IC50 [2]: 4.36 ± 0.5 µM; IC50 (MCF10A cells): 1.13 ± 0.14 µM
